Laboratory results: patent US5496810A, “Pyrimidine deoxyribonucleoside potentiation of combination therapy based on 5-fluorouracil and interferon” (Montefiore Medical Center, priority 1994, dated 1996)
pIC50: −log10 of the molar value.

Test system: HT-29 human carcinoma cells
Test: cells
Conditions: for Cloning Efficiency (% of control): 72 hours
Experimental: HT-29 human carcinoma cells (ATCC No. HTB-38) were maintained in RPMI 1640 with 10%v/v fetal bovine serum (GIBCO) in a humidified, 5% CO2 atmosphere at 37° C. Cells were plated in 24 well plates (150 cells per well) in RPMI 1640 medium with 10% v/v dialyzed fetal bovine serum. […] The various agents were diluted in phosphate-buffered saline (PBS), and control wells received vehicle alone. After 72 hours, drug containing medium was removed and replaced with RPMI 1640 with 10%v/v fetal bovine serum. Cell colonies were allowed to grow for an additional 7-10 days, at which point they were stained and counted. […] Data are means of at least 3 determinations.

[1] = 5-FU 0, IFN 500 u/ml, 5-ETH or 5-PRO 150 μM
[2] = 5-FU 0.05 μM, IFN 500 u/ml, 5-ETH or 5-PRO 150 μM
[3] = 5-FU 0.10 μM, IFN 500 u/ml, 5-ETH or 5-PRO 150 μM
[4] = 5-FU 0.25 μM, alone (CONT) or with IFN 500 u/ml, 5-ETH or 5-PRO 150 μM
[5] = 5-FU 0.50 μM, alone (CONT) or with IFN 500 u/ml, 5-ETH or 5-PRO 150 μM
[6] = 5-FU 1.0 μM, alone (CONT) or with IFN 500 u/ml, 5-ETH or 5-PRO 150 μM
[7] = 5-FU 1.5 μM, alone (CONT) or with IFN 500 u/ml, 5-ETH or 5-PRO 150 μM

Row | Structure (SMILES) | increased the cytotoxicity of 5-fluorouracil [times] | Cloning Efficiency (% of control) [1] [%] | Cloning Efficiency (% of control) [2] [%] | Cloning Efficiency (% of control) [3] [%] | Cloning Efficiency (% of control) [4] [%] | Cloning Efficiency (% of control) [5] [%] | Cloning Efficiency (% of control) [6] [%] | Cloning Efficiency (% of control) [7] [%] | Cloning Efficiency (% of control) (5-FU 2.0 μM, alone (CONT) or with IFN 500 u/ml, 5-PRO 150 μM) [%] | Cloning Efficiency (% of control) (5-FU 3.0 μM, alone (CONT) or with IFN 500 u/ml, 5-PRO 150 μM) [%] | pIC50 (Homo sapiens, HT-29, 72 h, read-out: 5-FU IC50, with 5-propynyloxy-2'-deoxyuridine (150 μM), 3 days of drug treatment) | inhibition at 2 µM (Homo sapiens, HT-29, 72 h, read-out: reduction in colonies) [%]
1 | CCOc1cn([C@H]2C[C@H](O)[C@@H](CO)O2)c(=O)[nH]c1=O [5-ethoxy-2'-deoxyuridine] | 5.7 | 89 | 81 | 80 | 60 | 38 | 13 | 4 | – | – | – | –
2 | C#CCOc1cn([C@H]2C[C@H](O)[C@@H](CO)O2)c(=O)[nH]c1=O [5-propynyloxy-2'-deoxyuridine, 5-(2-propynyloxy)-2'-deoxyuridine] | 7.7 | 105 | 100 | 81 | 51 | 26 | 9 | 4 | 2 | 0 | – | –
3 | O=c1[nH]cc(F)c(=O)[nH]1 [5-FU, 5-fluorouracil] | – | – | – | – | – | – | – | – | – | – | 6.59 | 50
